Test results from PubChem BioAssay AID248 (DTP/NCI, 2004).
“And” between values parts separate entries of the source, which are not always exact repeats. Equal values may be shown once. Toxic doses and inconclusive results are not listed.

Tested on: L1210 leukemia ip in BDF1 mice, survival T/C
Assay: NCI In Vivo Anticancer Drug Screen. Data for tumor model L1210 Leukemia (intraperitoneal) in B6D2F1 (BDF1) mice
Details: endpoint: mean survival time, higher = longer survival
Procedure, shortened: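 Antitumor effect is assessed in tumor-bearing animals. Survival in the compound arm is compared with a vehicle-dosed control arm and expressed as their quotient.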

[1] = dose: 100.0 mg/kg/injection, schedule: Q01DX009 (ip), vehicle: saline
[2] = dose: 200.0 mg/kg/injection, schedule: Q01DX009 (ip), vehicle: saline
[3] = dose: 400.0 mg/kg/injection, schedule: Q01DX009 (ip), vehicle: saline
[4] = dose: 50.0 mg/kg/injection, schedule: Q01DX001 (ip), vehicle: Klucel (hydroxypropylcellulose) (HPC)
[5] = dose: 100.0 mg/kg/injection, schedule: Q01DX009 (ip), vehicle: saline with Tween-80
[6] = dose: 100.0 mg/kg/injection, schedule: Q04DX003 (ip), vehicle: saline with Tween-80
[7] = dose: 200.0 mg/kg/injection, schedule: Q04DX003 (ip), vehicle: saline with Tween-80
[8] = dose: 400.0 mg/kg/injection, schedule: Q04DX003 (ip), vehicle: saline with Tween-80
[9] = dose: 100.0 mg/kg/injection, schedule: Q01DX001 (ip), vehicle: other
[10] = dose: 200.0 mg/kg/injection, schedule: Q01DX001 (ip), vehicle: other
[11] = dose: 100.0 mg/kg/injection, schedule: Q01DX001 (ip), vehicle: Klucel (hydroxypropylcellulose) (HPC)
[12] = dose: 200.0 mg/kg/injection, schedule: Q01DX001 (ip), vehicle: Klucel (hydroxypropylcellulose) (HPC)
[13] = dose: 400.0 mg/kg/injection, schedule: Q01DX001 (ip), vehicle: Klucel (hydroxypropylcellulose) (HPC)
[14] = dose: 50.0 mg/kg/injection, schedule: Q01DX009 (ip), vehicle: saline with Tween-80
[15] = dose: 100.0 mg/kg/injection, schedule: Q01DX001 (ip), vehicle: saline
[16] = dose: 200.0 mg/kg/injection, schedule: Q01DX001 (ip), vehicle: saline
[17] = dose: 400.0 mg/kg/injection, schedule: Q01DX001 (ip), vehicle: saline

Compound: Nc1cccc2ccc(S(=O)(=O)O)cc12
- T/C [1]: 106 % of control
- T/C [2]: 97 % of control
- T/C [3]: 101 % of control

Compound: O=C(O)C1C(C(=O)O)C2(Cl)C(Cl)=C(Cl)C1(Cl)C2(Cl)Cl.[Cu+2] (configuration not stated)
- T/C (dose: 25.0 mg/kg/injection, schedule: Q01DX001 (ip), vehicle: Klucel (hydroxypropylcellulose) (HPC)): 92 % of control
- T/C [4]: 97 % of control
- T/C (dose: 50.0 mg/kg/injection, schedule: Q01DX009 (ip), vehicle: saline sonified): 95 % of control

Compound: Cc1cc2ncn(CC(=O)NN)c2cc1C
- T/C [5]: 86 % of control
- T/C [6]: 92 % of control
- T/C [7]: 95 % of control
- T/C [8]: 92 % of control

Compound: Cc1ccccc1N=Cc1ccccc1O.[Co]
- T/C [9]: 102 % of control
- T/C [10]: 98 % of control

Compound: CP1(=O)CC2OC2C1 (configuration not stated)
- T/C (dose: 50.0 mg/kg/injection, schedule: Q01DX009 (ip), vehicle: saline): 96 % of control
- T/C [1]: 89 % of control
- T/C [2]: 93 % of control

Compound: CCCCCCCCCCCCCOc1ccc2ccccc2c1
- T/C [11]: 326 % of control
- T/C [12]: 165 % of control
- T/C [13]: 92 % of control

Compound: [NH-]c1ccccc1C(=O)O.[NH-]c1ccccc1C(=O)O.[Ni+2]
- T/C [14]: 100 % of control
- T/C (dose: 200.0 mg/kg/injection, schedule: Q01DX009 (ip), vehicle: saline with Tween-80): 105 % of control

Compound: NCCC(=O)NO
- T/C [15]: 98 % of control
- T/C [16]: 88 % of control
- T/C [17]: 106 % of control

Compound: CC12CCCCC1CCC1C2CCC2(C)C(C(=O)O)CCC12 (configuration not stated)
- T/C (dose: 100.0 mg/kg/injection, schedule: Q04DX002 (ip), vehicle: gum acacia): 89 % of control
- T/C (dose: 200.0 mg/kg/injection, schedule: Q04DX002 (ip), vehicle: gum acacia): 99 % of control
- T/C (dose: 400.0 mg/kg/injection, schedule: Q04DX002 (ip), vehicle: gum acacia): 92 % of control

Compound: Cc1ccc(NC(=O)Nc2cccc(O)c2)c([N+](=O)[O-])c1
- T/C (dose: 50.0 mg/kg/injection, schedule: Q01DX009 (ip), vehicle: Klucel (hydroxypropylcellulose) (HPC)): 98 % of control
- T/C (dose: 100.0 mg/kg/injection, schedule: Q01DX009 (ip), vehicle: Klucel (hydroxypropylcellulose) (HPC)): 102 % of control
- T/C (dose: 100.0 mg/kg/injection, schedule: Q04DX003 (ip), vehicle: Klucel (hydroxypropylcellulose) (HPC)): 103 % of control
- T/C (dose: 200.0 mg/kg/injection, schedule: Q01DX009 (ip), vehicle: Klucel (hydroxypropylcellulose) (HPC)): 98 % of control
- T/C (dose: 200.0 mg/kg/injection, schedule: Q04DX003 (ip), vehicle: Klucel (hydroxypropylcellulose) (HPC)): 106 % of control
- T/C (dose: 400.0 mg/kg/injection, schedule: Q04DX003 (ip), vehicle: Klucel (hydroxypropylcellulose) (HPC)): 103 % of control

Compound: COC(=O)C(CCC(=O)O)NC(=O)C(F)(F)F (configuration not stated)
- T/C [11]: 89 % of control
- T/C [12]: 97 % of control
- T/C [13]: 89 % of control

Compound: O=C(/C=C\c1ccc(/C=C\C(=O)c2ccccc2O)cc1)c1ccccc1O
- T/C (dose: 50.0 mg/kg/injection, schedule: Q01DX001 (ip), vehicle: saline): 97 % of control
- T/C [15]: 97 % of control
- T/C [16]: 97 % of control
- T/C [17]: 103 % of control

Compound: Cc1cc(=O)[nH]c(NC(C)C(=O)O)n1 (configuration not stated)
- T/C (dose: 12.5 mg/kg/injection, schedule: Q04DX003 (ip), vehicle: saline): 101 % of control
- T/C (dose: 25.0 mg/kg/injection, schedule: Q04DX003 (ip), vehicle: saline): 101 % of control
- T/C (dose: 50.0 mg/kg/injection, schedule: Q04DX003 (ip), vehicle: saline): 101 % of control

Compound: N#Cc1ccc(Oc2ccc(C#N)cc2)cc1
- T/C [6]: 100 % of control
- T/C [7]: 97 % of control
- T/C [8]: 101 % of control

Compound: CCc1nnc2cc(C)ccn12
- T/C [9]: 98 % of control
- T/C (dose: 100.0 mg/kg/injection, schedule: Q04DX003 (ip), vehicle: other): 98 % of control
- T/C [10]: 107 % of control
- T/C (dose: 200.0 mg/kg/injection, schedule: Q04DX003 (ip), vehicle: other): 98 % of control
- T/C (dose: 400.0 mg/kg/injection, schedule: Q01DX001 (ip), vehicle: other): 107 % of control

Compound: CCOC(=O)c1nc(N)nc(N)c1Oc1ccccc1
- T/C [4]: 92 % of control
- T/C [11]: 93 % of control
- T/C [12]: 92 % of control

Compound: CC1=C2C(=C[C@@](C)(CO)[C@@H]2O)C(=O)[C@](C)(O)C12CC2
- T/C (dose: 75.0 micrograms/kg/injection, schedule: Q01DX Z (ip), vehicle: saline): 103 % of control
- T/C (dose: 150.0 micrograms/kg/injection, schedule: Q01DX Z (ip), vehicle: saline): 117 % of control
- T/C (dose: 300.0 micrograms/kg/injection, schedule: Q01DX Z (ip), vehicle: saline): 117 % of control
- T/C (dose: 600.0 micrograms/kg/injection, schedule: Q01DX Z (ip), vehicle: saline): 100 % of control

Compound: Cc1ccc(S(=O)(=O)N2Cc3ccc([N+](=O)[O-])cc3C2)cc1
- T/C (dose: 100.0 mg/kg/injection, schedule: Q01DX001 (ip), vehicle: carboxymethylcellulose (CMC)): 100 % of control
- T/C (dose: 200.0 mg/kg/injection, schedule: Q01DX001 (ip), vehicle: carboxymethylcellulose (CMC)): 102 % of control
- T/C (dose: 400.0 mg/kg/injection, schedule: Q01DX001 (ip), vehicle: carboxymethylcellulose (CMC)): 105 % of control

Compound: C(#CCN1CCCC1)CCCN1CCCC1
- T/C (dose: 25.0 mg/kg/injection, schedule: Q01DX009 (ip), vehicle: saline with Tween-80): 98 % of control
- T/C (dose: 25.0 mg/kg/injection, schedule: Q04DX003 (ip), vehicle: saline with Tween-80): 97 % of control
- T/C [14]: 102 % of control
- T/C (dose: 50.0 mg/kg/injection, schedule: Q04DX003 (ip), vehicle: saline with Tween-80): 97 % of control
- T/C [5]: 95 % of control
- T/C [6]: 93 % of control and 98 % of control

Compound: O=C(Nc1ccc([N+](=O)[O-])cc1Cl)N(CC(O)c1ccccc1)C1CCCCC1 (configuration not stated)
- T/C [1]: 90 % of control
- T/C (dose: 100.0 mg/kg/injection, schedule: Q04DX003 (ip), vehicle: saline): 108 % of control
- T/C [2]: 95 % of control
- T/C (dose: 200.0 mg/kg/injection, schedule: Q04DX003 (ip), vehicle: saline): 102 % of control
- T/C [3]: 96 % of control
- T/C (dose: 400.0 mg/kg/injection, schedule: Q04DX003 (ip), vehicle: saline): 100 % of control

Compound: O=C(O)C/C1=C/CCCCCC1
- T/C [15]: 96 % of control
- T/C [1]: 96 % of control
- T/C [16]: 92 % of control
- T/C [2]: 96 % of control
- T/C [17]: 101 % of control
- T/C [3]: 93 % of control

Compound: CO[C@H](C)[C@](O)(C(=O)OCC1=CCN2CC[C@@H](O)[C@H]12)C(C)C
- T/C (dose: 65.0 mg/kg/injection, schedule: Q01DX009 (ip), vehicle: saline): 95 % of control and 109 % of control
- T/C (dose: 75.0 mg/kg/injection, schedule: Q01DX001 (ip), vehicle: acetone): 106 % of control
- T/C [1]: 95 % of control and 105 % of control
- T/C (dose: 150.0 mg/kg/injection, schedule: Q01DX001 (ip), vehicle: acetone): 103 % of control
- T/C (dose: 150.0 mg/kg/injection, schedule: Q01DX009 (ip), vehicle: saline): 94 % of control
- T/C (dose: 300.0 mg/kg/injection, schedule: Q01DX001 (ip), vehicle: acetone): 106 % of control

Compound: CCOC(=O)Nc1cc2c(nnn2C(c2ccccc2)c2ccccc2)c(N)n1
- T/C (dose: 5.0 mg/kg/injection, schedule: Q01DX001 (ip), vehicle: other): 112 % of control
- T/C (dose: 10.0 mg/kg/injection, schedule: Q01DX001 (ip), vehicle: other): 98 % of control
- T/C (dose: 20.0 mg/kg/injection, schedule: Q01DX001 (ip), vehicle: other): 93 % of control
- T/C (dose: 40.0 mg/kg/injection, schedule: Q01DX001 (ip), vehicle: other): 91 % of control
- T/C (dose: 80.0 mg/kg/injection, schedule: Q01DX001 (ip), vehicle: other): 86 % of control

Compound: O=C(NC(Cc1ccccc1)C(=O)CBr)OCc1ccccc1 (configuration not stated)
- T/C (dose: 100.0 mg/kg/injection, schedule: Q01DX001 (ip), vehicle: saline with Tween-80): 103 % of control

Compound: Cc1cc(C)cc(OC(=O)Nc2ccccc2C)c1
- T/C (dose: 100.0 mg/kg/injection, schedule: Q04DX002 (ip), vehicle: saline with Tween-80): 106 % of control
- T/C (dose: 200.0 mg/kg/injection, schedule: Q04DX002 (ip), vehicle: saline with Tween-80): 91 % of control
